Source: US12570659B2, “Bicyclic heteroaryl compounds useful as IRAK4 inhibitors” (BRISTOL-MYERS SQUIBB COMPANY, priority 2019, dated 2026)

Columns and labels:
[1] = target: IRAK4 (Homo sapiens (Human), UniProt Q9NWZ3); experiment: IRAK4 Inhibition Assay; type: biochemical; settings: ATP 500 μM; IRAK4 0.6 nM; 60 min room temperature
Protocol: IRAK4 Inhibition Assay The assays were performed in U-bottom 384-well plates. […] The reaction was initiated by the combination of IRAK4 with substrates and test compounds. The reaction mixture was incubated at room temperature for 60 min. and terminated by adding 45 μL of 35 mM EDTA to each sample. The reaction mixture was analyzed on the Caliper LABCHIP® 3000 (Caliper, Hopkinton, MA) by electrophoretic separation of the fluorescent substrate and phosphorylated product. Inhibition data were calculated by comparison to no enzyme control reactions for 100% inhibition and vehicle-only reactions for 0% inhibition.

[2] = target: JAK3 kinase (Homo sapiens (Human), UniProt P52333); experiment: JAK3 Homogeneous Time Resolved Fluorescence (HTRF) Assay; type: binding; settings: for IC50: competition binding with fluorescein-labeled ATP competitive probe; for Ratio of JAK3 IC50 to IRAK4 IC50: selectivity for IRAK4 over JAK3
Protocol: JAK3 Homogeneous Time Resolved Fluorescence (HTRF) Assay
A time resolved FRET-based competition binding assay was used to assess test article binding to JAK3 kinase. His-tagged or GST-tagged kinase at a concentration of 1 nM was incubated with 0.2 nM Tb-labeled detection antibody (anti-His or anti-GST), test compound, and fluorescein-labeled ATP competitive probe at a concentration corresponding to the probe's equilibrium dissociation constant for one hour. Fluorescence at 495 nm and 520 nm was measured using an EnVision microplate reader to quantify FRET between Tb-labeled detection antibody and fluorescein-labeled probe. Background subtracted FRET ratios were normalized to the maximum signal obtained in the absence of test compound. These values were converted to a percent inhibition. Percent inhibition was determined for test compounds at 11 concentrations. The IC50, defined as the concentration of the competing test compound needed to reduce specific binding of the probe by 50%, was calculated using the 4 parameter logistic equation to fit the data.

Sequence of JAK3 kinase (P52333 whole entry): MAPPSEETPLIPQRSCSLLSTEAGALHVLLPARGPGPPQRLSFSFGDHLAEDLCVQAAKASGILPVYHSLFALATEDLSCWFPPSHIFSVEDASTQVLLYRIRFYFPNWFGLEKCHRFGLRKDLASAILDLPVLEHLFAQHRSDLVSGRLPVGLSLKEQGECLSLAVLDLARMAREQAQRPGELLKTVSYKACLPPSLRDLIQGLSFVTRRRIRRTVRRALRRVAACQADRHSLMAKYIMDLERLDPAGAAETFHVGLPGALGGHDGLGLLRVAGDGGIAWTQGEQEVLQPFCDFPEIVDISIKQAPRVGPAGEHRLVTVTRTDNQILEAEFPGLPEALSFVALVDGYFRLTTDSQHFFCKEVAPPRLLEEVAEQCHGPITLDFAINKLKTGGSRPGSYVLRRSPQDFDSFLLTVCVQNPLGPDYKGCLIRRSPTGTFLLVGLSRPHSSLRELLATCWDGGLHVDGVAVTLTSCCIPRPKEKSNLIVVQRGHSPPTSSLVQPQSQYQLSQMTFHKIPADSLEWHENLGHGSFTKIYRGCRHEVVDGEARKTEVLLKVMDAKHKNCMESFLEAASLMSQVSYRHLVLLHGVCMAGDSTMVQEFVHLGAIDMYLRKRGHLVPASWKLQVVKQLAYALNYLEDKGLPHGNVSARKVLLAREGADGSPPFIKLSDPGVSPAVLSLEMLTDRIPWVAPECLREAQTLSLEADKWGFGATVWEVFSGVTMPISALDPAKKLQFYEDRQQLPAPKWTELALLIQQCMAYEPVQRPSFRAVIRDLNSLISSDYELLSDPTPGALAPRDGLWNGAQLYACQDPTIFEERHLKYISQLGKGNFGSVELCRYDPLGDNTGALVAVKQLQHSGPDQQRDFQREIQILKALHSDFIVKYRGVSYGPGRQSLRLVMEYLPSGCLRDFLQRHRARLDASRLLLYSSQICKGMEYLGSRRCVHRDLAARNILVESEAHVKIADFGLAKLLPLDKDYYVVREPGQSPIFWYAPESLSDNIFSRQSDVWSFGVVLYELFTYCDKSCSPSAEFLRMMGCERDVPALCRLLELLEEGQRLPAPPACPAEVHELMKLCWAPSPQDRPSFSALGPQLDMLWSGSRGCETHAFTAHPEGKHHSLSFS
Sequence of IRAK4 (Q9NWZ3 whole entry, species assumed): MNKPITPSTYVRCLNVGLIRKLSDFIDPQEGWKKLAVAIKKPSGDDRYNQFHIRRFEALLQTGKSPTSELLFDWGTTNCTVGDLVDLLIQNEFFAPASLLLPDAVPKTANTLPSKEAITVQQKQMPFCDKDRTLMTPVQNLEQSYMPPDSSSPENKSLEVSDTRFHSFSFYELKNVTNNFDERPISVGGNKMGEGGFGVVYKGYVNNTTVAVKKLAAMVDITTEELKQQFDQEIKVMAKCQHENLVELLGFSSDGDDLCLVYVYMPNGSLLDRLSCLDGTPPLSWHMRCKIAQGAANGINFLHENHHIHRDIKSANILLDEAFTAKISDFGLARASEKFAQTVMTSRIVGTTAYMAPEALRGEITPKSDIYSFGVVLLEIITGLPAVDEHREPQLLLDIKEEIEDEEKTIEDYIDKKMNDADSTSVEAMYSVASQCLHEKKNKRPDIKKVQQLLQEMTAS

## CC(C)Nc1c(C(=O)NC[C@@H](F)C(C)(C)O)cnn2cc(Nc3ncc(C#N)cc3Cl)cc12 [Example 42, (R)-6-((3-chloro-5-cyanopyridin-2-yl)amino)-N-(2-fluoro-3-hydroxy-3-methylbutyl)-4-(isopropylamino)pyrrolo[1,2-b]pyridazine-3-carboxamide]
[1]
  IC50: 26 nM
[2]
  IC50: > 50000 nM
  Ratio of JAK3 IC50 to IRAK4 IC50: >1923

## CC(C)Nc1c(C(=O)NC[C@@H](F)C(C)(C)O)cnn2cc(Nc3ccncn3)cc12 [Example 43, (R)—N-(2-fluoro-3-hydroxy-3-methylbutyl)-4-(isopropylamino)-6-(pyrimidin-4-ylamino) pyrrolo[1,2-b] pyridazine-3-carboxamide]
[1]
  IC50: 81 nM
[2]
  IC50: > 50000 nM
  Ratio of JAK3 IC50 to IRAK4 IC50: >617

## CC(C)Nc1c(C(=O)NC[C@@H](F)C(C)(C)O)cnn2cc(-c3cnoc3)cc12 [Example 44, (R)—N-(2-fluoro-3-hydroxy-3-methylbutyl)-4-(isopropylamino)-6-(isoxazol-4-yl)pyrrolo[1,2-b]pyridazine-3-carboxamide]
[1]
  IC50: 1500 nM
[2]
  IC50: > 50000 nM
  Ratio of JAK3 IC50 to IRAK4 IC50: >33

## CC(C)Nc1c(C(=O)NC[C@@H](F)C(C)(C)O)cnn2cc(-c3ccncc3F)cc12 [Example 47, (R)—N-(2-fluoro-3-hydroxy-3-methylbutyl)-6-(3-fluoropyridin-4-yl)-4-(isopropylamino)pyrrolo[1,2-b]pyridazine-3-carboxamide]
[1]
  IC50: 3.5 nM
[2]
  IC50: > 50000 nM
  Ratio of JAK3 IC50 to IRAK4 IC50: >14286

## CC(C)Nc1c(C(=O)N[C@H]2CC[C@H](N)CC2)cnn2cc(-c3cccnc3)cc12 [Example 52, N-((1r,4r)-4-aminocyclohexyl)-4-(isopropylamino)-6-(pyridin-3-yl)pyrrolo[1,2-b]pyridazine-3-carboxamide]
[1]
  IC50: 40 nM
[2]
  IC50: ~43000 nM
  Ratio of JAK3 IC50 to IRAK4 IC50: ~1075

## CC(C)Nc1c(C(=O)NC[C@@H](F)C(C)(C)O)cnn2cc(-c3ccnc(N4CCOCC4)c3F)cc12 [Example 53, (R)-6-(3-fluoro-2-morpholinopyridin-4-yl)-N-(2-fluoro-3-hydroxy-3-methylbutyl)-4-(isopropylamino)pyrrolo[1,2-b]pyridazine-3-carboxamide]
[1]
  IC50: 100 nM
[2]
  IC50: ~50000 nM
  Ratio of JAK3 IC50 to IRAK4 IC50: ~500

## COc1cc(-c2cc3c(NC(C)C)c(C(=O)N[C@H]4CC[C@H](O)CC4)cnn3c2)c(F)cn1 [Example 57, 6-(5-fluoro-2-methoxypyridin-4-yl)-N-((1r,4r)-4-hydroxycyclohexyl)-4-(isopropylamino)pyrrolo[1,2-b]pyridazine-3-carboxamide]
[1]
  IC50: 20 nM
[2]
  IC50: > 50000 nM
  Ratio of JAK3 IC50 to IRAK4 IC50: >2500

## CC(C)Nc1c(C(=O)N[C@H]2CC[C@H](O)CC2)cnn2cc(-c3cccnc3)cc12 [Example 58, N-((1r,4r)-4-hydroxycyclohexyl)-4-(isopropylamino)-6-(pyridin-3-yl)pyrrolo[1,2-b]pyridazine-3-carboxamide]
[1]
  IC50: 54 nM
[2]
  IC50: > 50000 nM
  Ratio of JAK3 IC50 to IRAK4 IC50: >926

## COc1ncccc1-c1cc2c(NC(C)C)c(C(=O)N[C@H]3CC[C@H](NC(C)=O)CC3)cnn2c1 [Example 59, N-((1r,4r)-4-acetamidocyclohexyl)-4-(isopropylamino)-6-(2-methoxypyridin-3-yl)pyrrolo[1,2-b]pyridazine-3-carboxamide]
[1]
  IC50: 29 nM
[2]
  IC50: ~33000 nM
  Ratio of JAK3 IC50 to IRAK4 IC50: ~1138

## CC(=O)N[C@H]1CC[C@H](NC(=O)c2cnn3cc(-c4cn[nH]c4)cc3c2NC(C)C)CC1 [Example 61, N-((1r,4r)-4-acetamidocyclohexyl)-4-(isopropylamino)-6-(1H-pyrazol-4-yl)pyrrolo[1,2-b]pyridazine-3-carboxamide]
[1]
  IC50: 11 nM
[2]
  IC50: > 50000 nM
  Ratio of JAK3 IC50 to IRAK4 IC50: >4545

## CC(=O)N[C@H]1CC[C@H](NC(=O)c2cnn3cc(-c4c(C)ccnc4F)cc3c2NC(C)C)CC1 [Example 66, N-((1r,4r)-4-acetamidocyclohexyl)-6-(2-fluoro-4-methylpyridin-3-yl)-4-(isopropylamino)pyrrolo[1,2-b]pyridazine-3-carboxamide]
[1]
  IC50: 59 nM
[2]
  IC50: 18000 nM
  Ratio of JAK3 IC50 to IRAK4 IC50: 305

## CCOC(=O)N[C@H]1CC[C@H](NC(=O)c2cnn3cc(-c4ccncc4F)cc3c2NC(C)C)CC1 [Example 67, ethyl ((1r,4r)-4-(6-(3-fluoropyridin-4-yl)-4-(isopropylamino)pyrrolo[1,2-b]pyridazine-3-carboxamido)cyclohexyl)carbamate]
[1]
  IC50: 13 nM
[2]
  IC50: > 50000 nM
  Ratio of JAK3 IC50 to IRAK4 IC50: 3846

## Cc1cnccc1-c1cc2c(NC(C)C)c(C(=O)NCCC(C)(C)O)cnn2c1 [Example 72, N-(3-hydroxy-3-methylbutyl)-4-(isopropylamino)-6-(3-methylpyridin-4-yl)pyrrolo[1,2-b]pyridazine-3-carboxamide]
[1]
  IC50: 70 nM
[2]
  IC50: > 50000 nM
  Ratio of JAK3 IC50 to IRAK4 IC50: >714

## CC(=O)N[C@H]1CC[C@H](NC(=O)c2cnn3cc(-c4ccc(C(N)=O)cc4)cc3c2NC(C)C)CC1 [Example 74, N-((1r,4r)-4-acetamidocyclohexyl)-6-(4-carbamoylphenyl)-4-(isopropylamino)pyrrolo[1,2-b] pyridazine-3-carboxamide]
[1]
  IC50: 96 nM
[2]
  IC50: > 50000 nM
  Ratio of JAK3 IC50 to IRAK4 IC50: >521

## CC(=O)N[C@H]1CC[C@H](NC(=O)c2cnn3cc(-c4cnc(F)cc4C)cc3c2NC(C)C)CC1 [Example 75, N-((1r,4r)-4-acetamidocyclohexyl)-6-(6-fluoro-4-methylpyridin-3-yl)-4-(isopropylamino)pyrrolo[1,2-b]pyridazine-3-carboxamide]
[1]
  IC50: 5.8 nM
[2]
  IC50: ~22000 nM
  Ratio of JAK3 IC50 to IRAK4 IC50: ~3793

## CC(=O)N[C@H]1CC[C@H](NC(=O)c2cnn3cc(-c4ccc(C(N)=O)cc4F)cc3c2NC(C)C)CC1 [Example 76, N-((1r,4r)-4-acetamidocyclohexyl)-6-(4-carbamoyl-2-fluorophenyl)-4-(isopropylamino) pyrrolo[1,2-b]pyridazine-3-carboxamide]
[1]
  IC50: 92 nM
[2]
  IC50: > 50000 nM
  Ratio of JAK3 IC50 to IRAK4 IC50: >543

## COc1cc(-c2cc3c(NC(C)C)c(C(=O)NCCC(C)(C)O)cnn3c2)c(F)cn1 [Example 78, 6-(5-fluoro-2-methoxypyridin-4-yl)-N-(3-hydroxy-3-methylbutyl)-4-(isopropylamino) pyrrolo[1,2-b]pyridazine-3-carboxamide]
[1]
  IC50: 9.1 nM
[2]
  IC50: > 50000 nM
  Ratio of JAK3 IC50 to IRAK4 IC50: >5495

## Nc1c(C(=O)NCCN2CCOCC2)cnn2cc(-c3ccncc3F)cc12 [Example 79, 4-amino-6-(3-fluoropyridin-4-yl)-N-(2-morpholinoethyl)pyrrolo[1,2-b]pyridazine-3-carboxamide]
[1]
  IC50: 110 nM
[2]
  IC50: > 50000 nM
  Ratio of JAK3 IC50 to IRAK4 IC50: >455

## CC(=O)N[C@H]1CC[C@H](NC(=O)c2cnn3cc(-c4ccc(F)cn4)cc3c2NC(C)C)CC1 [Example 82, N-((1r,4r)-4-acetamidocyclohexyl)-6-(5-fluoropyridin-2-yl)-4-(isopropylamino)pyrrolo[1,2-b]pyridazine-3-carboxamide]
[1]
  IC50: 34 nM
[2]
  IC50: > 50000 nM
  Ratio of JAK3 IC50 to IRAK4 IC50: >1471

## Cc1cc(F)ncc1-c1cc2c(NC(C)C)c(C(=O)N[C@H]3CC[C@H](C(=O)N4CCOCC4)CC3)cnn2c1 [Example 83, 6-(6-fluoro-4-methylpyridin-3-yl)-4-(isopropylamino)-N-((1r,4r)-4-(morpholine-4-carbonyl)cyclohexyl)pyrrolo[1,2-b]pyridazine-3-carboxamide]
[1]
  IC50: 23 nM
[2]
  IC50: ~49000 nM
  Ratio of JAK3 IC50 to IRAK4 IC50: ~2130

## Cc1cc(F)ncc1-c1cc2c(NC(C)C)c(C(=O)NC3CCN(S(C)(=O)=O)CC3)cnn2c1 [Example 86, 6-(6-fluoro-4-methylpyridin-3-yl)-4-(isopropylamino)-N-(1-(methylsulfonyl)piperidin-4-yl)pyrrolo[1,2-b]pyridazine-3-carboxamide]
[1]
  IC50: 46 nM
[2]
  IC50: > 50000 nM
  Ratio of JAK3 IC50 to IRAK4 IC50: >1087

## CC(C)Nc1c(C(=O)NC[C@@H](F)C(C)(C)O)cnn2cccc12 [Example 96, (R)—N-(2-fluoro-3-hydroxy-3-methylbutyl)-4-(isopropylamino)pyrrolo[1,2-b]pyridazine-3-carboxamide]
[1]
  IC50: 740 nM
[2]
  IC50: > 50000 nM
  Ratio of JAK3 IC50 to IRAK4 IC50: >68

## CC(C)Nc1c(C(=O)NC[C@@H](F)C(C)(C)O)cnn2cc(-c3cccc(C#N)c3)nc12 [Example 98, (R)-2-(3-cyanophenyl)-N-(2-fluoro-3-hydroxy-3-methylbutyl)-8-(isopropylamino)imidazo[1,2-b]pyridazine-7-carboxamide]
[1]
  IC50: 240 nM
[2]
  IC50: > 50000 nM
  Ratio of JAK3 IC50 to IRAK4 IC50: >208

## CC(C)Nc1c(C(=O)NC[C@@H](F)C(C)(C)O)cnn2cc(-c3cccnc3)nc12 [Example 99, (R)—N-(2-fluoro-3-hydroxy-3-methylbutyl)-8-(isopropylamino)-2-(pyridin-3-yl) imidazo[1,2-b]pyridazine-7-carboxamide]
[1]
  IC50: 66 nM
[2]
  IC50: > 10000 nM
  Ratio of JAK3 IC50 to IRAK4 IC50: >152
